Data as given in ChEMBL document CHEMBL2040759, “Design, synthesis and anticancer activity of nitric oxide donating/chalcone hybrids” (2012).

Assays:
Assay type in all cases: functional
[1] = tested on: HOP-92; assay: Growth inhibition of human HOP92 cells assessed as cell growth at 10^-5 M after 48 hrs by SRB assay; settings: HOP-92, 48 h, read-out: Activity
[2] = tested on: NCI-H226; assay: Growth inhibition of human NCI-H226 cells assessed as cell growth at 10^-5 M after 48 hrs by SRB assay; settings: NCI-H226, 48 h, read-out: Activity
[3] = tested on: NCI-H23; assay: Growth inhibition of human NCI-H23 cells assessed as cell growth at 10^-5 M after 48 hrs by SRB assay; settings: NCI-H23, 48 h, read-out: Activity
[4] = tested on: CCRF-CEM; assay: Growth inhibition of human CCRF-CEM cells assessed as cell growth at 10^-5 M after 48 hrs by SRB assay; settings: read-out: Activity
[5] = tested on: NCI-H322M; assay: Growth inhibition of human NCI-H322M cells assessed as cell growth at 10^-5 M after 48 hrs by SRB assay; settings: read-out: Activity
[6] = tested on: NCI-H522; assay: Growth inhibition of human NCI-H522 cells assessed as cell growth at 10^-5 M after 48 hrs by SRB assay; settings: NCI-H522, 48 h, read-out: Activity
[7] = tested on: COLO 205; assay: Growth inhibition of human COLO205 cells assessed as cell growth at 10^-5 M after 48 hrs by SRB assay; settings: COLO 205, 48 h, read-out: Activity
[8] = tested on: HCC 2998; assay: Growth inhibition of human HCC2998 cells assessed as cell growth at 10^-5 M after 48 hrs by SRB assay; settings: HCC 2998, 48 h, read-out: Activity
[9] = tested on: HCT-15; assay: Growth inhibition of human HCT15 cells assessed as cell growth at 10^-5 M after 48 hrs by SRB assay; settings: HCT-15, 48 h, read-out: Activity
[10] = tested on: KM12; assay: Growth inhibition of human KM12 cells assessed as cell growth at 10^-5 M after 48 hrs by SRB assay; settings: KM12, 48 h, read-out: Activity
[11] = tested on: SW-620; assay: Growth inhibition of human SW620 cells assessed as cell growth at 10^-5 M after 48 hrs by SRB assay; settings: SW-620, 48 h, read-out: Activity
[12] = tested on: SF-268; assay: Growth inhibition of human SF268 cells assessed as cell growth at 10^-5 M after 48 hrs by SRB assay; settings: SF-268, 48 h, read-out: Activity
[13] = tested on: SF-295; assay: Growth inhibition of human SF295 cells assessed as cell growth at 10^-5 M after 48 hrs by SRB assay; settings: SF-295, 48 h, read-out: Activity
[14] = tested on: SNB-75; assay: Growth inhibition of human SNB75 cells assessed as cell growth at 10^-5 M after 48 hrs by SRB assay; settings: SNB-75, 48 h, read-out: Activity
[15] = tested on: U-251; assay: Growth inhibition of human U251 cells assessed as cell growth at 10^-5 M after 48 hrs by SRB assay; settings: U-251, 48 h, read-out: Activity
[16] = tested on: LOX IMVI; assay: Growth inhibition of human LOXIMVI cells assessed as cell growth at 10^-5 M after 48 hrs by SRB assay; settings: read-out: Activity
[17] = tested on: M14; assay: Growth inhibition of human M14 cells assessed as cell growth at 10^-5 M after 48 hrs by SRB assay; settings: M14, 48 h, read-out: Activity
[18] = tested on: SK-MEL-2; assay: Growth inhibition of human SK-MEL-2 cells assessed as cell growth at 10^-5 M after 48 hrs by SRB assay; settings: SK-MEL-2, 48 h, read-out: Activity
[19] = tested on: SK-MEL-28; assay: Growth inhibition of human SK-MEL-28 cells assessed as cell growth at 10^-5 M after 48 hrs by SRB assay; settings: SK-MEL-28, 48 h, read-out: Activity
[20] = tested on: SK-MEL-5; assay: Growth inhibition of human SK-MEL-5 cells assessed as cell growth at 10^-5 M after 48 hrs by SRB assay; settings: SK-MEL-5, 48 h, read-out: Activity
[21] = tested on: UACC-257; assay: Growth inhibition of human UACC257 cells assessed as cell growth at 10^-5 M after 48 hrs by SRB assay; settings: UACC-257, 48 h, read-out: Activity
[22] = tested on: UACC-62; assay: Growth inhibition of human UACC62 cells assessed as cell growth at 10^-5 M after 48 hrs by SRB assay; settings: UACC-62, 48 h, read-out: Activity
[23] = tested on: IGROV-1; assay: Growth inhibition of human IGROV1 cells assessed as cell growth at 10^-5 M after 48 hrs by SRB assay; settings: IGROV-1, 48 h, read-out: Activity
[24] = tested on: OVCAR-4; assay: Growth inhibition of human OVCAR4 cells assessed as cell growth at 10^-5 M after 48 hrs by SRB assay; settings: OVCAR-4, 48 h, read-out: Activity
[25] = tested on: OVCAR-8; assay: Growth inhibition of human OVCAR8 cells assessed as cell growth at 10^-5 M after 48 hrs by SRB assay; settings: OVCAR-8, 48 h, read-out: Activity
[26] = tested on: SK-OV-3; assay: Growth inhibition of human SKOV3 cells assessed as cell growth at 10^-5 M after 48 hrs by SRB assay; settings: SK-OV-3, 48 h, read-out: Activity
[27] = tested on: A498; assay: Growth inhibition of human A498 cells assessed as cell growth at 10^-5 M after 48 hrs by SRB assay; settings: A498, 48 h, read-out: Activity
[28] = tested on: ACHN; assay: Growth inhibition of human ACHN cells assessed as cell growth at 10^-5 M after 48 hrs by SRB assay; settings: read-out: Activity
[29] = tested on: CAKI-1; assay: Growth inhibition of human Caki1 cells assessed as cell growth at 10^-5 M after 48 hrs by SRB assay; settings: CAKI-1, 48 h, read-out: Activity
[30] = tested on: RXF 393; assay: Growth inhibition of human RXF393 cells assessed as cell growth at 10^-5 M after 48 hrs by SRB assay; settings: RXF 393, 48 h, read-out: Activity
[31] = tested on: PC-3; assay: Growth inhibition of human PC3 cells assessed as cell growth at 10^-5 M after 48 hrs by SRB assay; settings: PC-3, 48 h, read-out: Activity
[32] = tested on: DU-145; assay: Growth inhibition of human DU145 cells assessed as cell growth at 10^-5 M after 48 hrs by SRB assay; settings: DU-145, 48 h, read-out: Activity
[33] = tested on: MDA-MB-231; assay: Growth inhibition of human MDA-MB-231 cells assessed as cell growth at 10^-5 M after 48 hrs by SRB assay; settings: MDA-MB-231, 48 h, read-out: Activity
[34] = Growth inhibition of human Hs 578T cells assessed as cell growth at 10^-5 M after 48 hrs by SRB assay; settings: read-out: Activity
[35] = tested on: BT-549; assay: Growth inhibition of human BT549 cells assessed as cell growth at 10^-5 M after 48 hrs by SRB assay; settings: BT-549, 48 h, read-out: Activity
[36] = tested on: MDA-MB-468; assay: Growth inhibition of human MDA-MB-468 cells assessed as cell growth at 10^-5 M after 48 hrs by SRB assay; settings: MDA-MB-468, 48 h, read-out: Activity

O=C(CO[N+](=O)[O-])Nc1ccc(C(=O)/C=C/c2ccc(Cl)cc2)cc1
growth at 10 µM [1]: 66.8% | growth at 10 µM [2]: 81.7% | growth at 10 µM [3]: 5.49% | growth at 10 µM [4]: 20.1% | growth at 10 µM [5]: 71.5% | growth at 10 µM [6]: 38.7% | growth at 10 µM [7]: 36.1% | growth at 10 µM [8]: -61.3% | growth at 10 µM [9]: 58.9% | growth at 10 µM [10]: -60.6% | growth at 10 µM [11]: -61.8% | growth at 10 µM [12]: 44.9% | growth at 10 µM [13]: 105% | growth at 10 µM [14]: 69.7% | growth at 10 µM [15]: 14.9% | growth at 10 µM [16]: -60.9% | growth at 10 µM [17]: 3.46% | growth at 10 µM [18]: 81.7% | growth at 10 µM [19]: 86.8% | growth at 10 µM [20]: 54.5% | growth at 10 µM [21]: 61.2% | growth at 10 µM [22]: 49.2% | growth at 10 µM [23]: -26% | growth at 10 µM [24]: 76.1% | growth at 10 µM [25]: 27.2% | growth at 10 µM [26]: 89.3% | growth at 10 µM [27]: 103% | growth at 10 µM [28]: 62.3% | growth at 10 µM [29]: 74.9% | growth at 10 µM [30]: 72.5% | growth at 10 µM [31]: 27.6% | growth at 10 µM [32]: 79.9% | growth at 10 µM [33]: 55% | growth at 10 µM [34]: 89.7% | growth at 10 µM [35]: 18.9% | growth at 10 µM [36]: 48.7%

O=C(CO[N+](=O)[O-])Nc1ccc(C(=O)/C=C/c2ccc3c(c2)OCO3)cc1
growth at 10 µM [1]: 77.3% | growth at 10 µM [2]: 107% | growth at 10 µM [3]: 58.1% | growth at 10 µM [4]: 70% | growth at 10 µM [5]: 108% | growth at 10 µM [6]: 97.6% | growth at 10 µM [7]: 113% | growth at 10 µM [8]: 69.2% | growth at 10 µM [9]: 76.7% | growth at 10 µM [10]: 35.9% | growth at 10 µM [11]: 47.8% | growth at 10 µM [12]: 82.4% | growth at 10 µM [13]: 74.6% | growth at 10 µM [14]: 86.3% | growth at 10 µM [15]: 57.3% | growth at 10 µM [16]: 21.5% | growth at 10 µM [17]: 81.8% | growth at 10 µM [18]: 119% | growth at 10 µM [19]: 104% | growth at 10 µM [20]: 90.8% | growth at 10 µM [21]: 92.9% | growth at 10 µM [22]: 96% | growth at 10 µM [23]: 46.3% | growth at 10 µM [24]: 96.1% | growth at 10 µM [25]: 75.8% | growth at 10 µM [26]: 111% | growth at 10 µM [27]: 107% | growth at 10 µM [28]: 99.2% | growth at 10 µM [29]: 93% | growth at 10 µM [30]: 107% | growth at 10 µM [31]: 61.4% | growth at 10 µM [32]: 96.7% | growth at 10 µM [33]: 87.4% | growth at 10 µM [34]: 103% | growth at 10 µM [35]: 87.6% | growth at 10 µM [36]: 91.9%
